The test system of experiment [1] is derived cell line NAS1604C. Nature of the experiment: On chip drug screening of derived cell line. The experiment is classed as cell-based, human. As to the method: (§1) On chip drug screening was performed using the PDMS-based microfluidic chip as described above. A 500 μL glass syringe (Hamilton, USA) and polytetrafluoroethylene (PTFE) tubings with appropriate bore (Cole Parmer, USA) was used to connect between the syringe pump (Harvard Apparatus PHD Ultra Syringe Pump, USA) and the microfluidic chip. Fluorinert® FC-40 (Sigma-Aldrich, USA) supplemented with 2% 008-Fluorosurfactant (Ran Biotechnologies, USA) was used as oil phase; relevant cell culture medium, supplemented with 1% (w/v) methyl cellulose (Sigma-Aldrich, USA) was used as aqueous phase. Cells treated with 0.1% dimethyl sulfoxide (DMSO) were used as negative control.
(§2) Briefly, cells at final concentrations of 1-2×10^6 cells per mL were aliquoted in 0.2 mL PCR tubes, then mixed with corresponding drugs and 2 μM ethidium homodimer 1 (Life Technologies, USA) by manual pipetting. Next, […], cell-drug mixtures were loaded into the tubing, consecutively segregated by oil phase at withdrawal rate of 200 μL/h by syringe pump. After loading all mixtures, the tubing was inserted into the microfluidic chip, which was back-flushed with oil phase at 500 μL/h by syringe pump. After that, the mixtures were infused at 25 μL/h by syringe pump. Finally, the inlet and outlet tubings were cut and sealed with Vaseline (Vaseline, USA). The chips were placed in 150 mm cell culture dish (Coming, USA) containing wet paper towels, and transferred to humidified incubator at 37° C. supplemented with 5% CO2 for 16-24 h incubation. Brightfield and red fluorescence images (Ex. 531/40 nm, Em. 593/40 nm) were taken under 10× magnification (Life Technologies EVOS FL Imaging System, USA).
(§3) For on chip assays, the number of cells was counted in brightfield and red fluorescence images from each well respectively. Cell viability was calculated as follows: […]
where Total cells and Dead cells referred to the total number of cells counted from brightfield and red fluorescence images, respectively.
Drug susceptibility between the primary tumor cell NAS1604 and its derived cell line NAS1604C was compared (FIG. 9). […] Here, the concept of droplet cell viability was introduced to indicate the total number of live cells among all cells in each individual droplet; in turn, the range of droplet cell viability referred to the range of cell viability of all droplets under specified treatment condition. […] On the other hand, mean cell viability of all treatment conditions were higher in the derived cell line NAS1604C than corresponding conditions in the primary tumor cell NAS1604, reminiscent of increased cell viability that was required for tumor amplification.

The subject of experiment [2] is primary tumor cell NAS1604 (nasopharyngeal tumor). Nature of the experiment: On chip drug screening of primary tumor dissociated cells. The experiment is classed as cell-based, human.
Experiment [3] deals with NAS1608 human primary nasopharyngeal tumor sample. Kind of experiment: cells. The experiment is classed as cell-based. The note with it: for droplet cell viability range: 17 h post-treatment; for range of droplet cell viability: before treatment (0 h); for mean cell death: normalized to DMSO control, calibrated by 0 h data; for viability at 1 µM / viability at 10 µM / cytotoxicity at 10 µM: Homo sapiens; for viability at 1 µM / viability at 10 µM: read-out: mean cell viability.

For experiment [4], the system named is MDA-MB-231 cells. Nature of the experiment: On chip drug screening assay (ethidium homodimer 1 staining). The experiment is classed as cell-based, human. As to the method: (§4) Jurkat E6.1 cells (ATCC® TIB-152™) and MDA-MB-231 cells (ATCC® HTB-26™) were used as models for suspended and adherent cancer cell lines respectively. Jurkat cell line was derived from human acute T cell leukemia, whereas MDA-MB-231 cell line was derived from human metastatic breast adenocarcinoma.
as §1, §2
For on chip assays, brightfield and red fluorescence images were initially processed by ImageJ v.1.50i, Cell counting was either performed manually or by Matlab v.R201.5a based on the workflow shown on FIG. 5B. Briefly, cells from brightfield and red fluorescence images were detected separately using a heuristic Hough Transformation model based on threshold implementation on circular diameter and pixel intensity. Next, each recognized cell was dissected into 10×10 pixels matrix for analysis of its pixel intensity. Subsequently, two layers of multi-radii analysis of pixel intensity around the center of each matrix distinguished signal from noise. Afterwards, cells were distinguished from noise based on the brightfield image, whereas cell viability was determined by signal intensity of corresponding red fluorescence image. Finally, positional information (defined by row: x, and column: y) and size (defined by radius: r) of discrete image matrix was used to classify each cell as “live” or “dead”. The total number of cells in each image corresponding to each droplet formation well on chip was summarized as a table in CSV format for calculation of cell viability. […]
as §3
where Total cells and Dead cells referred to the total number of cells counted from brightfield and red fluorescence images, respectively. […]

Experiment [5] relates to Jurkat cells. Nature of the experiment: 96-well microtiter plate drug screening assay (Alamar Blue). The experiment is classed as cell-based, human. To be noted: 96-well plate, 16-24 h. As to the method:
as §4
(§5) Microtiter plate drug screening assays were carried out on 96-well clear round flat-bottom plates (Corning, USA) or 384-well white square flat-bottom plates (Corning, USA).
(§6) First, 5.0×10^5 or 1.0×10^5 cells were seeded per well for 96-well and 384-well plates respectively. Drugs were diluted with Dulbecco's phosphate-buffered saline (DPBS) (Life Technologies, USA), and subsequently added to achieve final drug concentrations as indicated on the graphs. Afterwards, the plates were transferred to humidified incubator at 37° C. supplemented with 5% CO2 for 16-24 h incubation. Finally, Alamar Blue assay was used to measure cell viability. Fluorescence intensity (Ex. 560 nm, Em. 590 nm) using auto-cutoff was measured from bottom on plate reader (Molecular Devices SpectraMax MS Plate Reader, USA). Cells treated with 0.1% dimethyl sulfoxide (DMSO) were used as negative control, while no cells were added to blank control. All experiments were performed in triplicate for 96-well plates and in quadruplicates for 384-well relates.
(§7) For microliter plate assays, average relative fluorescence signal measured by plate reader from 6 reads of each well was used as raw data point. Cell viability was calculated as follows: […]
(§8) where Sample represented raw data points of each sample well, whereas DMSO control and Blank represented average raw data points of all DMSO control and Blank wells, respectively.
(In general: The colour change of resazurin is a common sign of viable cells or microbes.)

The subject of experiment [6] is MDA-MB-231 cells. The description is as above. To be noted: 96-well plate. The experiment is classed as cell-based, human. As to the method: as §4, §5, §6, §7, §8
Experiment [7] relates to Jurkat cells. Kind of experiment: 384-well microtiter plate drug screening assay (Alamar Blue). The experiment is classed as cell-based, human. The note with it: 384-well plate, 16-24 h. As to the method:
as §4, §5, §6, §7, §8

Experiment [8] concerns MDA-MB-231 cells. Described as above. The experiment is classed as cell-based, human. To be noted: 384-well plate. As to the method: as §4, §5, §6, §7, §8

Where two headings read alike, the source gives them in different places.

Usually IC50 stands for the concentration at which inhibition is half-maximal. A higher IC50 goes with weaker potency. The term viability denotes a read-out of living cells in per cent, often relative to untreated cells.

`N.N.[Cl][Pt][Cl]` [cisplatin]: the “droplet cell viability range” value came to 36.5% in experiment [1] (11 μM cisplatin); 71.6% in experiment [1] (33 μM cisplatin); 56.5% in experiment [3] (NAS1608, 100 μM cisplatin). In experiment [1] (33 μM cisplatin), the “droplet cell viability range after removal of one droplet outlier” value stood at 40.8%. The “dose dependence of response” value in experiment [1] (11 and 33 μM) is “dose-dependent response”. Moreover, the “mean cell viability compared with other treatments” value in experiment [2] (NAS1604, 20 μM) was “lowest mean cell viability”. Moreover, the “range of droplet cell viability” value is 64.0% in experiment [2] (NAS1604, 20 μM cisplatin) and 31.1% in experiment [3] (NAS1608, 100 μM cisplatin). Also, the mean cell death in experiment [3] (NAS1608, 100 μM, 17 h) came out at 21.0%. For the same compound, the concentration for half-maximal inhibition (IC50) with MDA-MB-231 cells [4] is 4.2 µM; in the experiment on Jurkat cells [5], 39 µM; in the experiment on MDA-MB-231 cells [6], greater than 50 µM; with Jurkat cells [7], 39 µM; in the experiment on MDA-MB-231 cells [8] it was greater than 50 µM.
Regarding `CC(C)C[C@H](NC(=O)[C@H](Cc1ccccc1)NC(=O)c1cnccn1)B(O)O` [bortezomib], the “droplet cell viability range” value in experiment [1] (1 μM bortezomib) worked out at 37.5%; in experiment [3] (NAS1608, 10 μM bortezomib), 49.7%. Further, the “droplet cell viability range after removal of one droplet outlier” value in experiment [1] (1 μM bortezomib) was 16.1%. The “cell viability compared with mock treatment” value in experiment [1] (1 μM, versus DMSO) is “highest cell viability”. For the same compound, the “range of droplet cell viability” value came to 42.6% in experiment [2] (NAS1604, 1 μM bortezomib) and 29.0% in experiment [3] (NAS1608, 10 μM bortezomib). In addition, in experiment [2] (NAS1604, 1 μM, versus DMSO and cisplatin), the “mean cell viability compared with other treatments” value is on record as “highest mean cell viability”. In addition, the viability at 1 µM was 72.9% in experiment [3] (0 h) and 42.5% in experiment [3] (17 h). The viability at 10 µM in experiment [3] (0 h) amounted to 78.8%; in experiment [3] (17 h) it was 34.6%; in the experiment with MDA-MB-231 cells [8] (Homo sapiens, 10.0 μM dose, read-out: cell viability), 50%. For the same compound, the cytotoxicity at 10 µM is 35 to 55% in experiment [3] (17 h, read-out: droplet cell viability reduction in the majority of droplets); 62.9% in experiment [3] (17 h, read-out: maximum reduction of droplet cell viability); 29.3% in experiment [3] (17 h, read-out: minimum reduction of droplet cell viability). Also, the “share of total sample cell population in droplets with viability reduction of over 30%” value in experiment [3] (NAS1608, 10 μM bortezomib, 17 h) worked out at 92.4%. Moreover, the mean cell death in experiment [3] (NAS1608, 10 μM, 17 h) is 51.7%. The “dose dependence of normalized cell viability” value in experiment [3] (NAS1608, 16-24 h, normalized to mock treatment) is “dose-dependent reduction of cell viability”. Further, the IC50 in the experiment on MDA-MB-231 cells [4] (Homo sapiens) is greater than 10 µM; in the experiment with Jurkat cells [5] (Homo sapiens), 22.1 µM; in the experiment on MDA-MB-231 cells [6] (Homo sapiens) it was greater than 10 µM; in the experiment on Jurkat cells [7] (Homo sapiens), 0.039 µM.

The values are drawn from US20190291112A1, “DROPLET MICROFLUIDICS FOR DRUG SCREENING” (University of Macau, priority 2018, published 2019).
